Reference: PubChem BioAssay (NCI)
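In this assay, cells in 96-well plates receive the compound at five concentrations for 48 hours. Endpoints are linearly interpolated between the surrounding concentrations. TGI denotes the concentration required for complete inhibition of growth.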

What was measured:
Assay in all cases: NCI tumour cell line growth inhibition, 48 h
786-0 renal = tested on: 786-0 renal
A498 renal = tested on: A498 renal
A549 NSCLC = tested on: A549 NSCLC
ACHN renal = tested on: ACHN renal
BT-549 breast = tested on: BT-549 breast
CAKI-1 renal = tested on: CAKI-1 renal
CCRF-CEM leukemia = tested on: CCRF-CEM leukemia
COLO 205 colon = tested on: COLO 205 colon
DU-145 prostate = tested on: DU-145 prostate
EKVX NSCLC = tested on: EKVX NSCLC
HCC-2998 colon = tested on: HCC-2998 colon
HCT-116 colon = tested on: HCT-116 colon
HCT-15 colon = tested on: HCT-15 colon
HL-60(TB) leukemia = tested on: HL-60(TB) leukemia
HOP-62 NSCLC = tested on: HOP-62 NSCLC
HOP-92 NSCLC = tested on: HOP-92 NSCLC
HS 578T breast = tested on: HS 578T breast
HT29 colon = tested on: HT29 colon
K-562 leukemia = tested on: K-562 leukemia
KM12 colon = tested on: KM12 colon
LOX IMVI melanoma = tested on: LOX IMVI melanoma
M14 melanoma = tested on: M14 melanoma
MALME-3M melanoma = tested on: MALME-3M melanoma
MCF7 breast = tested on: MCF7 breast
MDA-MB-231 breast = tested on: MDA-MB-231 breast
MDA-MB-435 = tested on: MDA-MB-435
MDA-N = tested on: MDA-N
MOLT-4 leukemia = tested on: MOLT-4 leukemia
NCI-H226 lung = tested on: NCI-H226 lung
NCI-H23 lung = tested on: NCI-H23 lung
NCI-H460 lung = tested on: NCI-H460 lung
NCI/ADR-RES ovarian = tested on: NCI/ADR-RES ovarian
OVCAR-3 ovarian = tested on: OVCAR-3 ovarian
OVCAR-4 ovarian = tested on: OVCAR-4 ovarian
OVCAR-5 ovarian = tested on: OVCAR-5 ovarian
OVCAR-8 ovarian = tested on: OVCAR-8 ovarian
PC-3 prostate = tested on: PC-3 prostate
RPMI-8226 leukemia = tested on: RPMI-8226 leukemia
RXF 393 renal = tested on: RXF 393 renal
SF-268 CNS = tested on: SF-268 CNS
SF-295 CNS = tested on: SF-295 CNS
SF-539 CNS = tested on: SF-539 CNS
SK-MEL-2 melanoma = tested on: SK-MEL-2 melanoma
SK-MEL-28 melanoma = tested on: SK-MEL-28 melanoma
SK-MEL-5 melanoma = tested on: SK-MEL-5 melanoma
SK-OV-3 ovarian = tested on: SK-OV-3 ovarian
SN12C renal = tested on: SN12C renal
SNB-19 CNS = tested on: SNB-19 CNS
SNB-75 CNS = tested on: SNB-75 CNS
SW-620 colon = tested on: SW-620 colon
TK-10 renal = tested on: TK-10 renal
U251 CNS = tested on: U251 CNS
UACC-257 melanoma = tested on: UACC-257 melanoma
UACC-62 melanoma = tested on: UACC-62 melanoma
UO-31 renal = tested on: UO-31 renal
IGROV1 ovarian = tested on: IGROV1 ovarian
T-47D breast = tested on: T-47D breast

COc1cccc2c(=O)c3c(O)c4cc(N(C)C)ccc4c(OC(C)=O)c3oc12
TGI (786-0 renal): 24 µM
TGI (A498 renal): 60.8 µM
TGI (A549 NSCLC): > 100 µM
TGI (ACHN renal): 32.8 µM
TGI (BT-549 breast): 21.9 µM
TGI (CAKI-1 renal): 16.9 µM
TGI (CCRF-CEM leukemia): 13.8 µM
TGI (COLO 205 colon): 17.8 µM
TGI (DU-145 prostate): 37.5 µM
TGI (EKVX NSCLC): 25.8 µM
TGI (HCC-2998 colon): 32.5 µM
TGI (HCT-116 colon): 26.8 µM
TGI (HCT-15 colon): 25.3 µM
TGI (HL-60(TB) leukemia): 14.2 µM
TGI (HOP-62 NSCLC): 41.5 µM
TGI (HOP-92 NSCLC): 39.3 µM
TGI (HS 578T breast): 69.5 µM
TGI (HT29 colon): 27.1 µM
TGI (K-562 leukemia): 97.4 µM
TGI (KM12 colon): 34.8 µM
TGI (LOX IMVI melanoma): 24.3 µM
TGI (M14 melanoma): 29.9 µM
TGI (MALME-3M melanoma): 8.96 µM
TGI (MCF7 breast): 61.7 µM
TGI (MDA-MB-231 breast): 25 µM
TGI (MDA-MB-435): 31.4 µM
TGI (MDA-N): 27.8 µM
TGI (MOLT-4 leukemia): 40.5 µM
TGI (NCI-H226 lung): 75.3 µM
TGI (NCI-H23 lung): 38.4 µM
TGI (NCI-H460 lung): 50.2 µM
TGI (NCI/ADR-RES ovarian): 60.5 µM
TGI (OVCAR-3 ovarian): 13.6 µM
TGI (OVCAR-4 ovarian): 32 µM
TGI (OVCAR-5 ovarian): > 100 µM
TGI (OVCAR-8 ovarian): 37.4 µM
TGI (PC-3 prostate): 56.7 µM
TGI (RPMI-8226 leukemia): 52.6 µM
TGI (RXF 393 renal): 18.6 µM
TGI (SF-268 CNS): 68.4 µM
TGI (SF-295 CNS): > 100 µM
TGI (SF-539 CNS): 40.4 µM
TGI (SK-MEL-2 melanoma): 46.9 µM
TGI (SK-MEL-28 melanoma): 22.3 µM
TGI (SK-MEL-5 melanoma): 25.1 µM
TGI (SK-OV-3 ovarian): > 100 µM
TGI (SN12C renal): 25.5 µM
TGI (SNB-19 CNS): 91.6 µM
TGI (SNB-75 CNS): 51.4 µM
TGI (SW-620 colon): 22.4 µM
TGI (TK-10 renal): 29.3 µM
TGI (U251 CNS): 30.2 µM
TGI (UACC-257 melanoma): 32.2 µM
TGI (UACC-62 melanoma): 28 µM
TGI (UO-31 renal): 36.4 µM

C/C(O)=C/c1nc2sc(C)c(C)c2c(=O)s1
TGI (786-0 renal): > 100 µM
TGI (A498 renal): > 100 µM
TGI (A549 NSCLC): > 100 µM
TGI (ACHN renal): > 100 µM
TGI (BT-549 breast): > 100 µM
TGI (CAKI-1 renal): > 100 µM
TGI (CCRF-CEM leukemia): > 100 µM
TGI (COLO 205 colon): > 100 µM
TGI (DU-145 prostate): > 100 µM
TGI (EKVX NSCLC): > 100 µM
TGI (HCT-116 colon): > 100 µM
TGI (HCT-15 colon): > 100 µM
TGI (HL-60(TB) leukemia): > 100 µM
TGI (HOP-62 NSCLC): > 100 µM
TGI (HOP-92 NSCLC): > 100 µM
TGI (HS 578T breast): 74 µM
TGI (HT29 colon): > 100 µM
TGI (IGROV1 ovarian): > 100 µM
TGI (K-562 leukemia): > 100 µM
TGI (KM12 colon): > 100 µM
TGI (LOX IMVI melanoma): > 100 µM
TGI (M14 melanoma): > 100 µM
TGI (MALME-3M melanoma): > 100 µM
TGI (MCF7 breast): > 100 µM
TGI (MDA-MB-231 breast): > 100 µM
TGI (MDA-MB-435): > 100 µM
TGI (MDA-N): > 100 µM
TGI (NCI-H226 lung): > 100 µM
TGI (NCI-H23 lung): > 100 µM
TGI (NCI/ADR-RES ovarian): > 100 µM
TGI (OVCAR-3 ovarian): > 100 µM
TGI (OVCAR-4 ovarian): > 100 µM
TGI (OVCAR-5 ovarian): > 100 µM
TGI (OVCAR-8 ovarian): > 100 µM
TGI (PC-3 prostate): 69.5 µM
TGI (RPMI-8226 leukemia): > 100 µM
TGI (RXF 393 renal): > 100 µM
TGI (SF-268 CNS): > 100 µM
TGI (SF-295 CNS): > 100 µM
TGI (SF-539 CNS): > 100 µM
TGI (SK-MEL-2 melanoma): 65.1 µM
TGI (SK-MEL-28 melanoma): > 100 µM
TGI (SK-MEL-5 melanoma): > 100 µM
TGI (SK-OV-3 ovarian): > 100 µM
TGI (SN12C renal): > 100 µM
TGI (SNB-19 CNS): > 100 µM
TGI (SNB-75 CNS): > 100 µM
TGI (SW-620 colon): > 100 µM
TGI (T-47D breast): > 100 µM
TGI (TK-10 renal): > 100 µM
TGI (U251 CNS): > 100 µM
TGI (UACC-257 melanoma): > 100 µM
TGI (UACC-62 melanoma): > 100 µM
TGI (UO-31 renal): > 100 µM
